Reference: patent US20250032573A1, “IMMUNITY-ENHANCING PEPTIDE ANALOGS AND USES THEREOF” (RESEARCH & BUSINESS FOUNDATION SUNGKYUNKWAN UNIVERSITY, priority 2023, published 2025)

Columns and labels:
[1] = test system: neutrophils; test: Neutrophil chemotaxis assay using a Boyden chamber; type: cell-based
Experimental: To investigate the effect of the WKYMVm peptide analogs on the regulation of immune cell mobility, which a representative function of FPR, a chemotaxis assay was performed using a Boyden chamber.
To measure the in vitro innate immune activity of four peptides comprising one non-natural β^3-amino acid residue, the effect of enhancing neutrophil mobility was measured.

[2] = test system: neutrophils; test: Superoxide anion (ROS) production in neutrophils; type: cell-based
Experimental: The effect of superoxide anion production in neutrophils by the peptoid-comprising analogs in which a peptoid residue was substituted for K, Y, and M in the structure of WKYMVm was measured.

[3] = test system: neutrophils isolated from mouse bone marrow; test: Cytokine secretion of neutrophils by ELISA, with or without LPS; type: cell-based; details: 1 μM
Experimental: Neutrophils regulate the activity of other immune cells through the production of various types of cytokines. To investigate the effect of the WKYMVm peptide analogs on regulating cytokine production in neutrophils, […], and 24 hours later, the supernatants were collected and subjected to an enzyme-linked immunosorbent assay (ELISA) to measure the amount of cytokine secretion.

[4] = molecular target: FPR1 (Homo sapiens, UniProt P21462); test: cell-based; details: FPR1-expressing RBL-2H3 cell line
Experimental: To investigate whether activation of FPR1, which is important in regulating the activity of innate immune cells, is induced by the WKYMVm peptide analogs, changes in calcium ions were measured in RBL-2H3 cell line, a type of mast cell that artificially expressed FPR1. […] On the other hand, an increase in intracellular calcium ions by WKYMVβm (V is a β-amino acid) through activation of FPR1 was not observed.

[5] = test system: neutrophils
[6] = test system: neutrophils; test: Degranulation activity of neutrophils (beta-hexosaminidase activity); type: cell-based
Experimental: The degranulation activity of neutrophils by the analogs in which each amino acid in the structure of WKYMVm was substituted with a β-amino acid was compared and analyzed by measuring beta-hexosaminidase activity.
The degranulation activity of neutrophils by the peptoid-containing analogs in which a peptoid residue was substituted for K, Y, and M in the structure of WKYMVm was measured.

[7] = molecular target: FPR2 (Homo sapiens, UniProt P25090); test: cell-based; details: FPR2-expressing RBL-2H3 cell line
Experimental: To investigate whether activation of FPR2 is induced by the WKYMVm peptide analogs, changes in calcium ions were measured in RBL-2H3 cell line that artificially expressed FPR2.

FPR2, sequence (P25090 whole entry): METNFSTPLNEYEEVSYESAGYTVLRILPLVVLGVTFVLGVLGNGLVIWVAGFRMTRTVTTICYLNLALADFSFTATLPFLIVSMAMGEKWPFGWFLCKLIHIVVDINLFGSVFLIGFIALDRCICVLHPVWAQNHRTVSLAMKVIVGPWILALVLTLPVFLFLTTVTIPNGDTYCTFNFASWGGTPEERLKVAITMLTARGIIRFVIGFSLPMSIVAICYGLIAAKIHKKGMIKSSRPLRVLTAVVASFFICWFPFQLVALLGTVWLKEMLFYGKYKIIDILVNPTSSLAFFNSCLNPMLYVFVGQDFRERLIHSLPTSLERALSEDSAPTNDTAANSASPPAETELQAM
FPR1, sequence (P21462 whole entry): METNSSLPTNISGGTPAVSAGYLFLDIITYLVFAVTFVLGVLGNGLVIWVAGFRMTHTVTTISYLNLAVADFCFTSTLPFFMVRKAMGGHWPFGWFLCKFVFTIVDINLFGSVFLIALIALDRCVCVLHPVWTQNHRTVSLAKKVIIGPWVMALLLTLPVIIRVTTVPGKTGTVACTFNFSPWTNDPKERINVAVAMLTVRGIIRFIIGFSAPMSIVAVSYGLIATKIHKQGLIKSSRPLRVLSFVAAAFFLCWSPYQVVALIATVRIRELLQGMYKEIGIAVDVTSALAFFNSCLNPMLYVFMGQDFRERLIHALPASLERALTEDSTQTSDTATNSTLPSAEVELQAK

In the case of `CSCC[C@H](NC(=O)[C@H](Cc1ccc(O)cc1)NC(=O)[C@H](CCCCN)NC(=O)[C@@H](N)Cc1c[nH]c2ccccc12)C(=O)N[C@H](CC(=O)N[C@H](CCSC)C(N)=O)C(C)C` [WKYMVβm], the “effect of enhancing neutrophil mobility, compared with the WKYMVm peptide” value [1] was “weak activity only at high concentrations”, the “neutrophil mobility at 1 μM” value ([1]; 1 μM) was “highly active neutrophil mobility promotion effect was induced” and the “neutrophil mobility at a low concentration” value ([1]; low concentration) was “not promoted”. For the same molecule, the “superoxide anion production in neutrophils” value [2] was “did not induce superoxide anion production”, the “effect in regulating the neutrophil activity (LPS-induced cytokines)” value [3] was “minimal effect” and the “increase in intracellular calcium ions through activation of FPR1 (in words)” value [4] was “not observed”. For the same molecule, the “calcium ion-increasing effect in neutrophils” value [5] was “not exhibited”, the “degranulation activity of neutrophils” value [6] was “did not induce the degranulation activity of neutrophils” and the “increase in intracellular calcium ions through activation of FPR2 (in words)” value [7] was “not observed”.
